pEC50: −log10 of the molar value. Where a SMILES comes first, the peptide text is derived from it. [ ]: non-standard residue; d: D form. The star is where a group is joined. X1 = CC(C)C[C@@H](C[N+]1=C2CCCN2CCC1)N*; dIva = CC[C@@](C)(N)C(=O)O; Pip = O=C(O)[C@@H]1CCCCN1; Aib = CC(C)(N)C(=O)O; βAla = NCCC(=O)O
What was measured:
[1] = test system: P. falciparum; conditions: read-out: EC50 against P. falciparum; cited from earlier work
[2] = test system: multi-drug-resistant P. falciparum line Dd2; assay type: cell-based, Plasmodium falciparum

Compound	pEC50 [1]	antiplasmodial activity in words [2]
CC[C@H](C)[C@@H](C(=O)O[C@@H](CC(C)C)C(=O)N[C@@H](CC(C)C)C(=O)N[C@@H](C)/C=C/C(=O)N1C(=O)C=C(OC)[C@@H]1C)N(C)C [Gallinamide A]	5.08	–
CC[C@@](C)(NC(=O)[C@H](CC(C)C)NC(=O)[C@H](C)NC(=O)C(C)(C)NC(=O)[C@@H]1CCCCN1C(=O)C(C)(C)NC(=O)C(C)(C)NC(=O)CNC(=O)CCNC(=O)[C@H](CC(C)C)NC(=O)C(C)(C)NC(=O)C(C)(C)NC(=O)[C@@H]1CCCCN1C(=O)C(C)(C)NC(=O)[C@@H]1CCCCN1C(C)=O)C(=O)N[C@@H](CC(C)C)C[N+]1=C2CCCN2CCC1 [efrapeptin F (53), efrapeptin F] (Ac-[Pip][Aib][Pip][Aib][Aib]L[βAla]G[Aib][Aib][Pip][Aib]AL[dIva]-X1; N-terminus and C-terminus assumed)	–	submicromolar
